From the NIST ThermoML archive (doi:10.1016/j.jct.2012.12.022)
“And” between values parts separate entries of the source, which are not always exact repeats. Equal values may be shown once.

Test: mn = molality of the nth substance listed, in mol/kg
Conditions: 101 kPa, Liquid; for speed of sound: Sing-around technique in a fixed-path interferometer; for mass density: Vibrating tube method

CC(=O)NCC(=O)O [N-acetylglycine] + O
Conditions | mass density, 288.15 K | mass density, 293.15 K | mass density, 298.15 K | mass density, 303.15 K | speed of sound, 288.15 K | speed of sound, 293.15 K | speed of sound, 298.15 K [m/s] | speed of sound, 303.15 K
m1 = 0.085 | 1001.93 kg/m3 | 1000.99 kg/m3 | 999.799 kg/m3 | 998.366 kg/m3 | 1470.3 m/s | 1485.9 m/s | 1499.7 | 1511.7 m/s
m1 = 0.18 | 1005.02 kg/m3 and 1004.89 kg/m3 | 1004.02 kg/m3 and 1003.9 kg/m3 | 1002.78 kg/m3 and 1002.66 kg/m3 | 1001.3 kg/m3 and 1001.18 kg/m3 | 1475.4 m/s and 1470.6 m/s | 1490.5 m/s and 1490.7 m/s | 1504 | 1515.6 m/s and 1515.5 m/s

O=C([O-])CC(O)(CC(=O)[O-])C(=O)[O-].[K+].[K+].[K+] [potassium citrate] + O
Conditions | mass density, 288.15 K [kg/m3] | mass density, 293.15 K [kg/m3] | mass density, 298.15 K [kg/m3] | mass density, 303.15 K [kg/m3] | speed of sound, 288.15 K [m/s] | speed of sound, 293.15 K [m/s] | speed of sound, 298.15 K [m/s] | speed of sound, 303.15 K [m/s]
m1 = 0.00361 | 999.9 | 998.989 | 997.839 | 996.386 | 1467.4 | 1483.1 | 1497.3 | 1509.7
m1 = 0.05427 | 1010.36 | 1009.25 | 1007.98 | 1006.52 | 1478.4 | 1493.8 | 1507.6 | 1519.7
m1 = 0.09681 | 1018.59 | 1017.45 | 1016.12 | 1014.61 | 1487.2 | 1502.1 | 1515.8 | 1527.7
m1 = 0.2001 | 1038.27 | 1037.36 | 1035.59 | 1034.01 | 1507 | 1521.7 | 1534.6 | 1545.9
m1 = 0.2914 | 1055.11 | 1053.58 | 1051.92 | 1050.18 | 1524.1 | 1537.8 | 1550.6 | 1561.2
m1 = 0.3859 | 1071.84 | 1070.62 | 1069.02 | 1066.43 | 1541.9 | 1555.4 | 1567.7 | 1577.7
m1 = 0.4948 | 1090.12 | 1088.43 | 1086.46 | 1084.57 | 1561.8 | 1572.8 | 1584.8 | 1595.2
m1 = 0.5799 | 1104.11 | 1102.38 | 1100.2 | 1098.17 | 1576.6 | 1588 | 1598.8 | 1609.1
m1 = 0.6983 | 1122.79 | 1120.89 | 1118.45 | 1116.27 | 1597.6 | 1608.2 | 1618.3 | 1627.5
m1 = 0.7576 | 1131.78 | 1129.85 | 1127.36 | 1125.04 | 1607.6 | 1618.9 | 1627.7 | 1637.2
m1 = 0.8939 | 1151.83 | 1149.58 | 1146.96 | 1144.2 | 1630.8 | 1641.3 | 1649.4 | 1657.5
